Source: patent US20040192759A1, “Use of nefiracetam for treating neurodegeneration” (priority 2004, published 2004)
Entries after “also recorded” stand apart in the source; their conditions may differ.

Legend:
[1] = system: cortical rat embrio neurons; test: neurite outgrowth in primary cultures of cortical neurons; format: cell-based; details: 0.1, 1, 10 and 100 micromoles/l
[2] = system: rats with cerebral embolism; test: spatial learning and retention (watermaze) of rats with cerebral embolism; format: in vivo, male Wistar rats
Experimental: This assumption is confirmed by the effect of nefiracetam on spatial learning and retention in rats with cerebral embolism, treated for 9 days with nefiracetam or vehicle, starting within 24 hours of embolization.
In male Wistar rats weighing 190-220 g a total of 700 microspheres (48 μm in diameter) were injected into the right common carotid artery of each animal, whereby a quasi-immediate embolism occurs. The embolized animals were randomly divided into 2 groups, each of 13 animals with same neurological deficit, designated as “Control” (embolism plus Vehicle), or “Nefiracetam” (embolism plus nefiracetam 10 mg/kg/day). In addition, a group of 13 “Normal (Sham)” non-embolized animals were used. The administration of nefiracetam or of its vehicle started within the same day of embolization and treatment lasted 9 days. Seven days after embolization, the embolized rats were submitted to a watermaze test, said watermaze being adapted from the Morris water task. The time taken to find the platform (latency) was determined. […] The experiment was carried out in two different sessions. In the first session, at the seventh day embolized rats were submitted to the spatial learning test performed three trials per day for three days (from day 7 to day 9). In the second session, one week after the last day of spatial learning test […], a retention test was performed whereby each rat was given three consecutive trials to learn and remember the location of the platform.

[3] = system: hippocampal rat embrio neurons; test: neurite outgrowth in primary cultures of hippocampal neurons; format: cell-based
stroke patients = details: Hirata et al.; cited from earlier work
post-stroke patients = test: controlled clinical trial against placebo in post-stroke patients, improvement rating by duration from stroke; format: in vivo, human
Experimental: The activity of nefiracetam to improve ADL in post-stroke patients has been discovered during a controlled clinical trial against placebo. The compound has been administered orally (450 mg/day, three times daily) to 32 post-stroke patients within six months after the event whilst, concurrently, 27 patients received placebo. The two groups of patients were followed during at least 8 weeks and followed up at the end of week 4 and at the end of week 8 on a symptom scale measuring Activities of Daily Living. […] Among the above 59 patients, 19 received nefiracetam and 10 received placebo within three months after stroke. […] The difference was significant (p=0.035, χ^2 test).
Further, the action of nefiracetam on the patient who had been treated with nefiracetam early after stroke or later was evaluated.

[4] = system: patients after a stroke (cerebral infarction or cerebral hemorrhage); details: Ohtomo et al., global results; cited from earlier work
[5] = Overall (all durations from stroke)
[6] = duration from stroke <12 months
[7] = duration from stroke ≧12 months

Cc1cccc(C)c1NC(=O)CN1CCCC1=O [nefiracetam, N-(2,6-dimethylphenyl)-2-(2-oxo-1-pyrrolidinyl)acetamide]
neurotrophic effect (neurite outgrowth) [1]: significantly increasing neurite outgrowth | Number of rats which failed to find the platform within 180 Sec., Spatial learning test ([2]; Day 7, 10 mg/kg/day, of 13 rats): 8 | Latency to reach the platform, Spatial learning test ([2]; Day 7 after embolization, 10 mg/kg/day for 9 days, n 13): 147.6 ± 14.1 s | Number of rats which failed to find the platform within 180 Sec., Spatial learning test ([2]; Day 8, 10 mg/kg/day, of 13 rats): 2 | Latency to reach the platform, Spatial learning test ([2]; Day 8 after embolization, 10 mg/kg/day for 9 days, n 13): 83.7 ± 17.4 s | Number of rats which failed to find the platform within 180 Sec., Spatial learning test ([2]; Day 9, 10 mg/kg/day, of 13 rats): 2 | Latency to reach the platform, Spatial learning test ([2]; Day 9 after embolization, 10 mg/kg/day for 9 days, n 13): 93.1 ± 16.2 s | Number of rats which failed to find the platform within 180 Sec., Retention test ([2]; Day 17, 10 mg/kg/day, of 13 rats): 2 | Latency to reach the platform, Retention test ([2]; Day 17 after embolization (after washout), 10 mg/kg/day for 9 days, n 13): 72.2 ± 17.0 s | effect in retention test vs vehicle (in words) ([2]; day 17 after embolization, after washout): maintained even after washout; also recorded: remakable difference | learning ability in place-learning watermaze task vs vehicle (in words) ([2]; days 7 to 9 after embolization): clear difference between nefiracetam and vehicle-treated animals | neurotrophic effect (neurite outgrowth) ([3]; 0.1, 1, 10 and 100 micromoles/l): significantly increasing neurite outgrowth | neurite outgrowth effect in combination with bFGF ([3]; with bFGF): potentiated by bFGF | improvement of mental function tests (stroke patients): not significant | improvement on symptom scale measuring Activities of Daily Living (in words) (post-stroke patients; 450 mg/day orally, within six months after stroke, 32 patients, weeks 4 and 8): moderate or remarkable improvement | Emotional Disturbance, Improvement Rate (Percent Patients Remarkably or Moderately Improved) (post-stroke patients; [5]): Overall 22.6% | Global Improvement Rating, Improvement Rate (Percent Patients Remarkably or Moderately Improved) (post-stroke patients; [5]): Overall 32.3% | Intellectual Dysfunction, Improvement Rate (Percent Patients Remarkably or Moderately Improved) (post-stroke patients; [5]): Overall 11.9% | Psychiatric Symptoms, Improvement Rate (Percent Patients Remarkably or Moderately Improved) (post-stroke patients; [5]): Overall 30.8% | Reduced Spontaneity, Improvement Rate (Percent Patients Remarkably or Moderately Improved) (post-stroke patients; [5]): Overall 23.4% | ADL Improvement, Improvement Rate (Percent Patients Remarkably or Moderately Improved) (post-stroke patients; duration from stroke <3 months): 41.7% | ADL Improvement, Improvement Rate (patients improved/patients) (post-stroke patients; duration from stroke <3 months): 5/12 | Emotional Disturbance, Improvement Rate (Percent Patients Remarkably or Moderately Improved) (post-stroke patients; duration from stroke <3 months): 70.6% | Emotional Disturbance, Improvement Rate (patients improved/patients) (post-stroke patients; duration from stroke <3 months): 12/17 | Global Improvement Rating, Improvement Rate (Percent Patients Remarkably or Moderately Improved) (post-stroke patients; duration from stroke <3 months): 68.4% | Global Improvement Rating, Improvement Rate (patients improved/patients) (post-stroke patients; duration from stroke <3 months): 13/19 | Intellectual Dysfunction, Improvement Rate (Percent Patients Remarkably or Moderately Improved) (post-stroke patients; duration from stroke <3 months): 43.8% | Intellectual Dysfunction, Improvement Rate (patients improved/patients) (post-stroke patients; duration from stroke <3 months): 7/16 | Psychiatric Symptoms, Improvement Rate (Percent Patients Remarkably or Moderately Improved) (post-stroke patients; duration from stroke <3 months): 68.4% | Psychiatric Symptoms, Improvement Rate (patients improved/patients) (post-stroke patients; duration from stroke <3 months): 13/19 | Reduced Spontaneity, Improvement Rate (Percent Patients Remarkably or Moderately Improved) (post-stroke patients; duration from stroke <3 months): 61.1% | Reduced Spontaneity, Improvement Rate (patients improved/patients) (post-stroke patients; duration from stroke <3 months): 11/18 | ADL Improvement, Improvement Rate (Percent Patients Remarkably or Moderately Improved) (post-stroke patients; duration from stroke <6 months): 21.7% | ADL Improvement, Improvement Rate (patients improved/patients) (post-stroke patients; duration from stroke <6 months): 5/23 | Emotional Disturbance, Improvement Rate (Percent Patients Remarkably or Moderately Improved) (post-stroke patients; duration from stroke <6 months): 48.3% | Emotional Disturbance, Improvement Rate (patients improved/patients) (post-stroke patients; duration from stroke <6 months): 14/29 | Global Improvement Rating, Improvement Rate (Percent Patients Remarkably or Moderately Improved) (post-stroke patients; duration from stroke <6 months): 50.0% | Global Improvement Rating, Improvement Rate (patients improved/patients) (post-stroke patients; duration from stroke <6 months): 16/32 | Intellectual Dysfunction, Improvement Rate (Percent Patients Remarkably or Moderately Improved) (post-stroke patients; duration from stroke <6 months): 29.6% | Intellectual Dysfunction, Improvement Rate (patients improved/patients) (post-stroke patients; duration from stroke <6 months): 8/27 | Psychiatric Symptoms, Improvement Rate (Percent Patients Remarkably or Moderately Improved) (post-stroke patients; duration from stroke <6 months): 50.0% | Psychiatric Symptoms, Improvement Rate (patients improved/patients) (post-stroke patients; duration from stroke <6 months): 16/32 | Reduced Spontaneity, Improvement Rate (Percent Patients Remarkably or Moderately Improved) (post-stroke patients; duration from stroke <6 months): 46.7% | Reduced Spontaneity, Improvement Rate (patients improved/patients) (post-stroke patients; duration from stroke <6 months): 14/30 | ADL Improvement, Improvement Rate (Percent Patients Remarkably or Moderately Improved) (post-stroke patients; [6]): 14.3% | ADL Improvement, Improvement Rate (patients improved/patients) (post-stroke patients; [6]): 5/35 | Emotional Disturbance, Improvement Rate (Percent Patients Remarkably or Moderately Improved) (post-stroke patients; [6]): 48.8% | Emotional Disturbance, Improvement Rate (patients improved/patients) (post-stroke patients; [6]): 21/43 | Global Improvement Rating, Improvement Rate (Percent Patients Remarkably or Moderately Improved) (post-stroke patients; [6]): 50.0% | Global Improvement Rating, Improvement Rate (patients improved/patients) (post-stroke patients; [6]): 24/48 | Intellectual Dysfunction, Improvement Rate (Percent Patients Remarkably or Moderately Improved) (post-stroke patients; [6]): 23.1% | Intellectual Dysfunction, Improvement Rate (patients improved/patients) (post-stroke patients; [6]): 9/39 | Psychiatric Symptoms, Improvement Rate (Percent Patients Remarkably or Moderately Improved) (post-stroke patients; [6]): 50.0% | Psychiatric Symptoms, Improvement Rate (patients improved/patients) (post-stroke patients; [6]): 24/48 | Reduced Spontaneity, Improvement Rate (Percent Patients Remarkably or Moderately Improved) (post-stroke patients; [6]): 46.7% | Reduced Spontaneity, Improvement Rate (patients improved/patients) (post-stroke patients; [6]): 21/45 | ADL Improvement, Improvement Rate (Percent Patients Remarkably or Moderately Improved) (post-stroke patients; duration from stroke ≧3 months): 1.2% | ADL Improvement, Improvement Rate (patients improved/patients) (post-stroke patients; duration from stroke ≧3 months): 1/81 | ADL Improvement, Improvement Rate (Percent Patients Remarkably or Moderately Improved) (post-stroke patients; duration from stroke ≧6 months): 1.4% | ADL Improvement, Improvement Rate (patients improved/patients) (post-stroke patients; duration from stroke ≧6 months): 1/70 | Emotional Disturbance, Improvement Rate (Percent Patients Remarkably or Moderately Improved) (post-stroke patients; duration from stroke ≧6 months): 14.7% | Emotional Disturbance, Improvement Rate (patients improved/patients) (post-stroke patients; duration from stroke ≧6 months): 14/95 | Global Improvement Rating, Improvement Rate (Percent Patients Remarkably or Moderately Improved) (post-stroke patients; duration from stroke ≧6 months): 26.5% | Global Improvement Rating, Improvement Rate (patients improved/patients) (post-stroke patients; duration from stroke ≧6 months): 26/98 | Intellectual Dysfunction, Improvement Rate (Percent Patients Remarkably or Moderately Improved) (post-stroke patients; duration from stroke ≧6 months): 6.1% | Intellectual Dysfunction, Improvement Rate (patients improved/patients) (post-stroke patients; duration from stroke ≧6 months): 5/82 | Psychiatric Symptoms, Improvement Rate (Percent Patients Remarkably or Moderately Improved) (post-stroke patients; duration from stroke ≧6 months): 24.5% | Psychiatric Symptoms, Improvement Rate (patients improved/patients) (post-stroke patients; duration from stroke ≧6 months): 24/98 | Reduced Spontaneity, Improvement Rate (Percent Patients Remarkably or Moderately Improved) (post-stroke patients; duration from stroke ≧6 months): 16.0% | Reduced Spontaneity, Improvement Rate (patients improved/patients) (post-stroke patients; duration from stroke ≧6 months): 15/94 | ADL Improvement, Improvement Rate (Percent Patients Remarkably or Moderately Improved) (post-stroke patients; [7]): 1.7% | ADL Improvement, Improvement Rate (patients improved/patients) (post-stroke patients; [7]): 1/58 | Emotional Disturbance, Improvement Rate (Percent Patients Remarkably or Moderately Improved) (post-stroke patients; [7]): 8.6% | Emotional Disturbance, Improvement Rate (patients improved/patients) (post-stroke patients; [7]): 7/81 | Global Improvement Rating, Improvement Rate (Percent Patients Remarkably or Moderately Improved) (post-stroke patients; [7]): 22.0% | Global Improvement Rating, Improvement Rate (patients improved/patients) (post-stroke patients; [7]): 18/82 | Intellectual Dysfunction, Improvement Rate (Percent Patients Remarkably or Moderately Improved) (post-stroke patients; [7]): 5.7% | Intellectual Dysfunction, Improvement Rate (patients improved/patients) (post-stroke patients; [7]): 4/70 | Psychiatric Symptoms, Improvement Rate (Percent Patients Remarkably or Moderately Improved) (post-stroke patients; [7]): 19.5% | Psychiatric Symptoms, Improvement Rate (patients improved/patients) (post-stroke patients; [7]): 16/82 | Reduced Spontaneity, Improvement Rate (Percent Patients Remarkably or Moderately Improved) (post-stroke patients; [7]): 10.1% | Reduced Spontaneity, Improvement Rate (patients improved/patients) (post-stroke patients; [7]): 8/79 | incontinence of urines (post-stroke patients; early treatment after stroke): tends to improve | neurological signs (post-stroke patients; early treatment after stroke): tends to improve | activities of daily living, nefiracetam vs placebo [4]: no significant difference between the two groups | psychiatric symptoms [4]: improves the psychiatric symptoms
